Measured values taken from ChEMBL document CHEMBL3396979, “Synthesis and characterization of 1'-C-cyano-2'-fluoro-2'-C-methyl pyrimidine nucleosides as HCV polymerase inhibitors” (Bioorg Med Chem Lett, 2015).

Key:
Hepatitis C virus [1] = test: Antiviral activity against HCV genotype 1b infected in human HuH7 cells by replicon based assay; format: functional, cell-based, Hepacivirus hominis; conditions: Huh-7
[2] = Inhibition of HCV genotype 1b NS5B RNA dependent RNA polymerase assessed as reduction in triphosphate activity; set-up: species or system Hepatitis C virus subtype 1b
Hepatitis C virus [3] = test: Antiviral activity against HCV genotype 1a infected in human HuH7 cells by replicon based assay; format: functional, cell-based, Hepacivirus hominis; conditions: subtype 1a, Huh-7
[4] = Cytotoxicity against human HuH7 cells; format: cell-based, Huh-7
Hepatitis C virus [5] = test: Antiviral activity against HCV genotype 2a infected in human HuH7 cells by replicon based assay; format: functional, cell-based, Hepacivirus hominis; conditions: Huh-7
[6] = Drug metabolism in human HuH7 cells bearing HCV replicons assessed as formation of uridine-type triphosphates at 10 uM after 72 hrs by liquid chromatography coupled to triple quadrupole mass spectrometry; format: ADME, cell-based; conditions: huh-7, 72 h
[7] = Drug metabolism in human HuH7 cells bearing HCV replicons assessed as formation of triphosphates at 10 uM after 72 hrs by liquid chromatography coupled to triple quadrupole mass spectrometry; format: ADME, cell-based; conditions: huh-7, 72 h
[8] = Inhibition of HCV genotype 4a NS5B RNA dependent RNA polymerase assessed as reduction in triphosphate activity; set-up: species or system Hepatitis C virus subtype 4a
[9] = Inhibition of HCV genotype 2a NS5B RNA dependent RNA polymerase assessed as reduction in triphosphate activity; set-up: species or system Hepatitis C virus subtype 2a
[10] = Inhibition of HCV genotype 3a NS5B RNA dependent RNA polymerase assessed as reduction in triphosphate activity; set-up: species or system Hepatitis C virus subtype 3a

## C[C@@]1(O)[C@H](O)[C@@H](CO)O[C@H]1n1ccc(=O)[nH]c1=O
Hepatitis C virus [1]
  EC50: 13.1 µM
[2]; read-out: IC50
  IC50: 1.9 µM

## C[C@@]1(F)[C@H](O)[C@@H](CO)O[C@H]1n1ccc(N)nc1=O
Hepatitis C virus [1]
  EC50: 2.3 µM
[2]
  Ki: 0.06 µM
Hepatitis C virus [3]
  EC50: 0.6 µM

## C[C@@]1(O)[C@H](O)[C@@H](CO)O[C@@]1(C#N)n1ccc(N)nc1=O
Hepatitis C virus [1]
  EC50: > 89 µM
[2]; read-out: IC50
  IC50: 17.7 µM
Hepatitis C virus [3]
  EC50: 76 µM

## C[C@@]1(O)[C@H](O)[C@@H](CO)O[C@@]1(C#N)n1ccc(=O)[nH]c1=O
Hepatitis C virus [1]
  EC50: > 89 µM
[2]; read-out: IC50
  IC50: 27 µM
Hepatitis C virus [3]
  EC50: > 89 µM

## C[C@@]1(F)[C@H](O)[C@@H](CO)O[C@@]1(C#N)n1ccc(=O)[nH]c1=O
Hepatitis C virus [1]
  EC50: > 89 µM
[2]
  IC50: Not Active
Hepatitis C virus [3]
  EC50: > 89 µM

## C[C@@]1(F)[C@H](O)[C@@H](CO)O[C@@]1(C#N)n1ccc(N)nc1=O
Hepatitis C virus [1]
  EC50: > 89 µM
[2]; read-out: IC50
  IC50: 57 µM
Hepatitis C virus [3]
  EC50: > 89 µM

## CC(C)OC(=O)[C@H](C)N[P@](=O)(OC[C@H]1O[C@@](C#N)(n2ccc(N)nc2=O)[C@](C)(F)[C@@H]1O)Oc1ccccc1
[4]
  CC50: > 89 µM
Hepatitis C virus [1]
  EC50: 17.6 µM
Hepatitis C virus [5]
  EC50: 2.3 µM
[6]
  Drug metabolism: metabolite_notdetected
Hepatitis C virus [3]
  EC50: 2.9 µM
[7]
  Drug metabolism: metabolite_detected

## CC(C)OC(=O)[C@H](C)N[P@](=O)(OC[C@H]1O[C@@](C#N)(n2ccc(=O)[nH]c2=O)[C@](C)(F)[C@@H]1O)Oc1ccccc1
[4]
  CC50: > 89 µM
Hepatitis C virus [1]
  EC50: 63.5 µM
Hepatitis C virus [5]
  EC50: > 88 µM
[7]
  Drug metabolism: metabolite_detected

## C[C@@]1(O)[C@H](O)[C@@H](CO)O[C@H]1n1ccc(N)nc1=O
[2]; read-out: IC50
  IC50: 1.7 µM

## C[C@@]1(F)[C@H](O)[C@@H](CO)O[C@H]1n1ccc(=O)[nH]c1=O
Hepatitis C virus [1]
  EC50: > 89 µM
[8]
  IC50: 0.7 µM
[2]; read-out: IC50
  IC50: 0.7 µM
[9]
  IC50: 0.7 µM
Hepatitis C virus [3]
  EC50: > 89 µM
[10]
  IC50: 0.7 µM
